Consider 31 compounds from US4377581A, “Chloro- and alkoxy-substituted-2,4-diaminoquinazolines” (Pfizer Inc., priority 1981, dated 1983).

Structures are written as SMILES. “Also recorded” adds a separate entry of the source. Where a name gives a salt, the structure may show the parent alone. Read-outs that look alike come from different tables or passages of the source.

The nature of one data set: Water solubility. It is filed as physicochemical.
Data set [1] relates to conscious renally hypertensive dogs. As to the kind of experiment: Blood pressure lowering in conscious renally hypertensive dogs, oral. It counts as in vivo, dog. Here is the method:
The antihypertensive activity of the compounds of the invention is shown by their ability to lower the blood pressure of conscious spontaneously hypertensive rats and conscious renally hypertensive dogs, when administered orally at doses of up to 30 mg./kg.
Similarly, at the same dosage 2-[4-(2-hydroxy-2-methylprop-1-yloxycarbonyl)piperazin-1-yl]-4-amino-6-chloro-7-methoxyquinazoline, a particularly preferred compound of the invention, caused a reduction of 40 mm. Hg after one hour which increased only by 20 mm. Hg 6 hours after administration; and another particularly preferred compound: 2-[4-(2-furoyl)-1-piperazinyl]-4-amino-6-chloro-7-methoxyquinazoline effected a reduction in blood pressure of 40 mm. Hg which increased by only 5 mm. Hg six hours after the oral dose (0.2 mg./hg.) had been administered.

For data set [2] the following is noted: literature; cited from earlier work.
The conditions of data set [3]: Althuis et al., J. Med. Chem., 20, 146 (1977); cited from earlier work.
Where [4] appears, read: Example 10 table, hydrochloride salts except as otherwise noted, solvent not given, read-out: Solubility.
[5] abbreviates: water, hydrochloride salts, read-out: water solubility.

Take `COc1ccc2c(N)nc(N3CCN(C(=O)C4CCCO4)CC3)nc2c1OC` (stereo not shown): the solubility in the data set “Water solubility” (setting [4]) came to 150 mg/mL.
Same read-out and setting: the same measure for `COc1ccc2c(N)nc(N3CCN(C(=O)c4cccs4)CC3)nc2c1OC`: 11 mg/mL; for `COc1ccc2c(N)nc(N3CCN(C(=O)c4ccccc4)CC3)nc2c1OC`: 50 mg/mL.
On to `COc1ccc2c(N)nc(N3CCN(C(=O)C4COc5ccccc5O4)CC3)nc2c1OC` (stereo not shown), for which the solubility in the data set “Water solubility” (setting [4]) worked out at 15 mg/mL.
Consider `COc1cc2nc(N3CCN(C(=O)c4ccco4)CC3)nc(N)c2cc1Cl` [2-[4-(2-furoyl)-1-piperazinyl]-4-amino-6-chloro-7-methoxyquinazoline], for which the “reduction in blood pressure” value in data set [1] (0.2 mg./hg. as printed, time of reduction not given) is 40 mm. Hg. For the same compound, in data set [1] (0.2 mg./kg.), the heart rate change entry was “no significant heart rate change”, the other side effect entry was “no significant heart rate change or other unwanted side effect” and the “increase (return) of the reduced blood pressure 6 hours after administration” value turned out to be 5 mm. Hg.
In the case of `COc1c(Cl)cc2c(N)nc(N3CCN(C(=O)OCC(C)(C)O)CC3)nc2c1OC` [2-[4-(2-hydroxy-2-methylprop-1-yloxycarbonyl)piperazin-1-yl]-4-amino-6-chloro-7,8-dimethoxyquinazoline], in data set [1] (0.2 mg./kg.), the heart rate change result is recorded as “no significant change in heart rate” and the other side effect entry was “no significant change in heart rate or other side effect”. Also, the “decrease of blood pressure after 4 hours” value in data set [1] (0.2 mg./kg., 4 hours, statistically significant) came out at 30 mm. Hg.
Regarding `COc1cc2nc(N3CCN(C(=O)OCC(C)(C)O)CC3)nc(N)c2cc1Cl` [2-[4-(2-hydroxy-2-methylprop-1-yloxycarbonyl)piperazin-1-yl]-4-amino-6-chloro-7-methoxyquinazoline], in data set [1] (0.2 mg./kg.), the heart rate change result is reported as “no significant heart rate change”, the other side effect result was “no significant heart rate change or other unwanted side effect” and the “increase (return) of the reduced blood pressure 6 hours after administration” value came out at 20 mm. Hg. The “reduction of blood pressure after one hour” value in data set [1] (same dosage (0.2 mg./kg.), one hour) is given as 40 mm. Hg.
Take `COc1ccc2c(N)nc(N3CCN(c4cccc(C(F)(F)F)c4)CC3)nc2c1OC` [3-CF3 C6 H4]: the solubility in “Water solubility” (setting [4]) turned out to be 8 mg/mL.
Turning to `COc1cc2nc(N3CCN(C(=O)c4ccco4)CC3)nc(N)c2cc1O` [6-0-demethyl derivative], the “antihypertensive activity / potency” value in data set [2] is “considerably lower blood pressure lowering activity”. Further, the metabolite of prazosin result in data set [3] is reported as “major metabolite of prazosin”.
As to `COc1cc2c(N)nc(N3CCN(C(=O)c4ccco4)CC3)nc2cc1O` [7-0-demethyl derivative], the metabolite of prazosin entry in data set [3] is “less prevalent metabolite”.
Turning to `COc1ccc2c(N)nc(N3CCN(c4ccccc4)CC3)nc2c1OC` [C6 H5], the solubility in “Water solubility” (setting [4]) stood at 25 mg/mL.
As to `COc1ccc2c(N)nc(N3CCN(Cc4ccccc4)CC3)nc2c1OC` [CH2 C6 H5], the solubility in “Water solubility” (setting [4]) is 100 mg/mL.
As for `COc1ccc2c(N)nc(N3CCN(CCO)CC3)nc2c1OC` [CH2 CH2 OH], the solubility in “Water solubility” (setting [4]) turned out to be 95 mg/mL.
On to `C=CCN1CCN(c2nc(N)c3ccc(OC)c(OC)c3n2)CC1` [CH2 CHCH2], for which the solubility in “Water solubility” (setting [4]) is 50 mg/mL.
Same read-out and setting: the same measure for `CCCOC(=O)N1CCN(c2nc(N)c3ccc(OC)c(OC)c3n2)CC1` [COO(CH2)2 CH3]: 140 mg/mL; for `COc1ccc2c(N)nc(N3CCN(C(=O)OCCC(C)C)CC3)nc2c1OC` [COO(CH2)2 CH(CH3)2]: 25 mg/mL.
Regarding `CCCCCOC(=O)N1CCN(c2nc(N)c3ccc(OC)c(OC)c3n2)CC1` [COO(CH2)4 CH3], in the data set “Water solubility” (setting [4]), the solubility was found to be 40 mg/mL.
With `CCCCOC(=O)N1CCN(c2nc(N)c3ccc(OC)c(OC)c3n2)CC1` [COO(CH 2)3 CH3], the solubility in “Water solubility” (setting [4]) was 90 mg/mL.
`CCOC(=O)N1CCN(c2nc(N)c3ccc(OC)c(OC)c3n2)CC1` [COOCH2 CH3]: the solubility in “Water solubility” (setting [4]) was found to be 50 mg/mL.
On the same count and under the same terms, the same measure for `COc1ccc2c(N)nc(N3CCN(C(=O)OCC(C)C)CC3)nc2c1OC` [COOCH2 CH(CH3)2]: 40 mg/mL.
`COC(=O)N1CCN(c2nc(N)c3ccc(OC)c(OC)c3n2)CC1` [COOCH3]: in the data set “Water solubility” (setting [4]), the solubility is 40 mg/mL.
On to `COc1ccc2c(N)nc(N3CCN(C(=O)c4ccco4)CC3)nc2c1OC.Cl` [Example 4, 2-[4-(2-Furoyl)piperazine-1-yl]-4-amino-7,8-dimethoxyquinazoline hydrochloride], for which the solubility in “Water solubility” (setting [5]) came out at 20 mg/mL.
For `COc1c(Cl)cc2c(N)nc(N3CCN(C(=O)c4ccco4)CC3)nc2c1OC.Cl` [Example 8A, 2-[4-(2-Furoyl)piperazine-1-yl]-4-amino-6-chloro-7,8-dimethoxyquinazoline hydrochloride], in the data set “Water solubility” (setting [5]), the solubility stood at 8 mg/mL.
For `COc1cc2nc(N3CCN(C(=O)c4ccco4)CC3)nc(N)c2cc1Cl.Cl` [Example 8B, 2-[4-(2-Furoyl)piperazine-1-yl]-4-amino-6-chloro-7-methoxyquinazoline hydrochloride], the solubility in “Water solubility” (setting [5]) turned out to be 5 mg/mL.
As for `COc1c(Cl)cc2c(N)nc(N3CCN(C(=O)OCC(C)(C)O)CC3)nc2c1OC.Cl` [Example 9A, 2-Methyl-2-hydroxypropyl 4-[4-amino-6-chloro-7,8-dimethoxyquinazolin-2-yl]piperazine-1-carboxylate hydrochloride], in the data set “Water solubility” (setting [5]), the solubility stood at 35 mg/mL.
Turning to `COc1cc2nc(N3CCN(C(=O)OCC(C)(C)O)CC3)nc(N)c2cc1Cl` [Example 9B, hydrochloride], the solubility in “Water solubility” (setting [5]) came out at 6 mg/mL.
Regarding `COc1ccc2c(N)nc(N3CCCN(C(=O)c4ccco4)CC3)nc2c1OC` [Example 11, 2-[4-(2-Furoyl-homopiperazine-1-yl]-4-amino-7,8-dimethoxyquinazoline hydrochloride], the solubility in “Water solubility” (setting [5]) came out at 30 mg/mL.
As for `COc1ccc2c(N)nc(N3CCCN(C(=O)C4CCCO4)CC3)nc2c1OC.Cl` (stereo not shown) [Example 12, 2-[4-(2-Tetrahydrofuroyl)homopiperazin-1-yl]-4-amino-7,8-dimethoxyquinazoline hydrochloride], the solubility in “Water solubility” (setting [5]) was 120 mg/mL.
In the case of `COc1ccc2c(N)nc(N3CCC(Cc4ccccc4)CC3)nc2c1OC.Cl` [Example 13, 2-(4-Benzylpiperidin-1-yl)-4-amino-7,8-dimethoxyquinazoline hydrochloride], the solubility in the data set “Water solubility” (setting [5]) came to 6 mg/mL.
`COc1cc2c(N)nc(N3CCN(C(=O)OCC(C)(C)O)CC3)nc2c(OC)c1OC` [Trimazosin]: in data set [2], the “antihypertensive activity / potency” value was “active antihypertensive agent; also recorded: less potent than prazosin”.
For `COc1cc2nc(N3CCN(C(=O)c4ccco4)CC3)nc(N)c2cc1OC` [prazosin, 2-[4-(2-furoyl)piperazin-1-yl]-4-amino-6,7-dimethoxyquinazoline], in data set [2], the “antihypertensive activity / potency” value is reported as “clinically useful antihypertensive agent”.
